From US20110038940A1, “PULVERULENT COMPOSITION AND A PROCESS FOR PREPARING THE SAME” (INNOV'IA, priority 2008, published 2011)
Values after ≈ are worked out from the molar mass of the structure shown.

Columns and labels:
[1] = water; cited from earlier work
[2] = Sedimentation of dispersed composition in water measured by turbidity (back scattering laser, Turbiscan MA 1000); format: physicochemical; conditions: 10 g in 90 ml distilled water at 20° C., bottom of tube
Procedure: 10 g of the water-dispersible pulverulent composition A is dispersed in 90 ml of distilled water at 20° C. in a tube. The sedimentation rate is measured by turbidity using a back scattering laser device (Turbiscan MA 1000) along the tube. The back light is measured along the tube at different time so that evolution of the sedimentation can be followed along time. The sedimentation is measured at the bottom of the tube.

[3] = Sedimentation test (stability of the dispersion): sediment size and dry content after 24 hours; format: physicochemical; conditions: 1.5 g in 8.5 ml demineralised water, 2 min vortex; for Dry content of the sediment: sediment after 24 hours
Procedure: The stability is measured by the sedimentation test as follow: • 10 ml of solution is prepared using 8.5 ml of demineralised water and 1.5 g of the pulverulent composition A or B in special sedimentation tubes graduated from 0.1 ml up to 10 ml; • complete dispersion is assumed by a 2 min vortex mixing; • sedimentation is controlled at defined times to evaluate the amount of sediment; • quality of the dispersion is evaluated by measuring: • the dispersion of the solids all over the aqueous solution by measuring the height of the sediments of the hydrated particles. For the same amount of pulverulent composition, the higher the sediments, the more dispersed the particles in the aqueous solution • the dry content of the sediment after 24 hours.

[4] = Natural sedimentation in conical graduated tube, 15% dispersion in distilled water; sediment volume and dry solids; format: physicochemical; conditions: 15% (net w/total w) in distilled water at 20° C., 10 ml
Procedure: The water-dispersible pulverulent composition A is dispersed in distilled water at 20° C. at a concentration of 15% (net w/total w) in a conical graduated sedimentation tube (total volume of the solution is 10 ml). The quantity of the sediment (in ml) is measured along time (Table 3).
The encapsulation efficiency can also be assessed by measuring the hydration of the granules of the water-dispersible pulverulent composition of the invention. This has been evaluated by measuring the dry solid content of the sediment (% dry matter) (Table 3).

Cc1cc2nc3c(=O)[nH]c(=O)nc-3n(C[C@H](O)[C@H](O)[C@H](O)CO)c2cc1C [Riboflavin]
solubility [1]: 70 µg/mL (≈ 186 µM)
% Back light after 2 min dispersion ([2]; 2 min): 2%
% Back light after 6 min dispersion ([2]; 6 min): 3.1%
Sediment after 24 H ([3]; 24 h): 1.5 mL
Dry content of the sediment ([3]; listed as Riboflavin (raw material)): 39.4%
Dry content of the sediment ([3]; listed as Riboflavin (raw material) (control)): 39.4%
Dry content of the sediment ([3]; listed as Riboflavine: Raw material (control)): 39.4%
Sediment volume after 1 Hour dispersion ([4]; 1 hour): 0.6 mL
Dry solids content of the sediment after 24 Hour sedimentation ([4]; 24 hours): 39.3%
